Experimental data published in PMC10762078, “Role of UPF1-LIN28A interaction during early differentiation of pluripotent stem cells” (Nature Communications, 2024).
Ends that are not written are not given here.

Experiments:
[1] = test system: let-7a, let-7g, miR-16-5p and their targets in CHA15 cells; assay: RT-qPCR of mature LIN28A-regulated miRNAs and CDF of let-7-5p / miR-16-5p target mRNAs (Supplementary Fig. 6f); format: cell-based, human; set-up: key to let-7a level (RT-qPCR): relative level normalised to U6 snRNA; details: Fig. s6f, dot plots, CHA15 cells
Protocol: (§1) cDNA was synthesised using RevertAid Reverse Transcriptase (Thermo Fisher Scientific, EP0441) with synthesised random hexamer (Macrogen) for total RNA or stem-loop primers for miRNA. For RT-qPCR reactions, the SensiFAST SYBR No-ROX kit (Meridian Bioscience) was used according to the manufacturer’s protocol. All data analysis and visualisation were conducted using R 3.6.1 [www.r-project.org] or GraphPad Prism 10. RT primers for miRNA and RT-qPCR primer sequences are provided in Supplementary Data 6.
Genes regulated by miRNA let-7-5p and miR-16-5p were determined by TargetScanHuman. Among miRNA targets sorted by cumulative weighted context++ score (CWCS)[57], the 100 top genes were selected and analysed using CDF. […]
Scatter
(bottom panel), respectively. f Levels of m ature endogenous m iRNAs in CHA15 cells, which were regulated by LIN28A, were assessed using RT -qPCR. Cum ulative f raction of log2 fold change in the expression of genes regulated by let-7-5p and m iR-16- 5p was shown as CDF graphs. T he relative level of m RNA was norm alised to that of U6 snRNA in (c, d, and f). K–S tests were used for e and f. Unpaired Student’s t-test was used for c , d, and f . * p < 0.05, ** p < 0.01, *** p < 0.001. Exact p -values were provided in Source data. Data are presented as m ean values ± SEM. All statistical test used were two- sided. T he m inim um num ber of independent biological replicate experim ents was a and e n = 2, b–d and f n = 3. T he experim ents were conducted three tim es, each iteration producing consistent results.

hPSCs = assay: RT-qPCR of pluripotency and germ-layer markers during differentiation with CPP-peptides (Supplementary Fig. 7b-e); format: cell-based, human; details: for Difference between means (B - A) ± SEM: P8 - P1; for BMP2 mRNA level (RT-qPCR) / BMP4 mRNA level (RT-qPCR) / CDH2 mRNA level (RT-qPCR) / CXCR4 mRNA level (RT-qPCR) / SNAI1 mRNA level (RT-qPCR) / TBXT mRNA level (RT-qPCR): Fig. s7d
Protocol: For CPP-conjugated peptide delivery, HeLa, 293T, and PA-1 cells were incubated with CPP-conjugated peptides or CPP-FITC at 2 μM in DMEM with 10% FBS for 12 h a day before cell harvest. hPSCs were treated with CPP-conjugated peptides at 10 μM in mTeSR Plus Medium, and the peptide-containing medium was changed every day over 10 days. The ROCK inhibitor (Tocris Bioscience, Y-27632) treated-hPSCs were dissociated into single cells using Accutase (Merck, SCR005) and differentiated into ectoderm, mesoderm, and endoderm using the STEMdiff Trilineage Differentiation Kit ([…] Technologies, 05230) following the manufacturer’s protocol. Differentiated cells treated with CPP-conjugated peptides were analysed at 0, 3, and 5 days for ectoderm and endoderm, and at 0, 3, and 4 days for mesoderm. […]
as §1, with “Data 6. […]” for “Data 6.”
FPKM of each gene was presented f r om RNA-seq analysis. b–e hPSCs wer e treated with the indicated peptide during each germ la ye r differentiation. […]
An unpaired Student’s t-test was used for a–e. Data are presented as mean values ± SEM. All statistical test us ed wer e two-s ided. T he m inim um number of independent biological replicate experim ents was a–f n = 3. T he experiments wer e conducted three tim es, each iteration producing consistent results.

KKKWCRKKKSSADEKRYRALKRTAERELLMNA [P8]
let-7a level (RT-qPCR) ([1]; replicate 1): 0.9027 | let-7a level (RT-qPCR) ([1]; replicate 2): 0.8569 | let-7a level (RT-qPCR) ([1]; replicate 3): 0.8754 | CXCR4 (RT-qPCR) (hPSCs; Day 0, replicate 1, Fig. s7e): 1.088 | CXCR4 (RT-qPCR) (hPSCs; Day 0, replicate 2, Fig. s7e): 0.7848 | CXCR4 (RT-qPCR) (hPSCs; Day 0, replicate 3, Fig. s7e): 1.127 | CXCR4 (RT-qPCR) (hPSCs; Day 3, replicate 1, Fig. s7e): 70.9428 | CXCR4 (RT-qPCR) (hPSCs; Day 3, replicate 2, Fig. s7e): 396.929 | CXCR4 (RT-qPCR) (hPSCs; Day 3, replicate 3, Fig. s7e): 186.896 | CXCR4 (RT-qPCR) (hPSCs; Day 5, replicate 1, Fig. s7e): 166.399 | CXCR4 (RT-qPCR) (hPSCs; Day 5, replicate 2, Fig. s7e): 221.471 | CXCR4 (RT-qPCR) (hPSCs; Day 5, replicate 3, Fig. s7e): 55.5295 | Difference between means (B - A) ± SEM (hPSCs; CXCR4 day 3): -395.9 ± 135.2 | Mean CXCR4 (RT-qPCR) (hPSCs; CXCR4 day 3, mean of n = 3, Fig. s7e): 218.3 | Difference between means (B - A) ± SEM (hPSCs; CXCR4 day 5): -733.3 ± 94.11 | Mean CXCR4 (RT-qPCR) (hPSCs; CXCR4 day 5, mean of n = 3, Fig. s7e): 147.8 | FOXA1 (RT-qPCR) (hPSCs; Day 0, replicate 1, Fig. s7e): 1.247 | FOXA1 (RT-qPCR) (hPSCs; Day 0, replicate 2, Fig. s7e): 1.413 | FOXA1 (RT-qPCR) (hPSCs; Day 0, replicate 3, Fig. s7e): 0.3396 | FOXA1 (RT-qPCR) (hPSCs; Day 3, replicate 1, Fig. s7e): 74.3757 | FOXA1 (RT-qPCR) (hPSCs; Day 3, replicate 2, Fig. s7e): 54.052 | FOXA1 (RT-qPCR) (hPSCs; Day 3, replicate 3, Fig. s7e): 82.1532 | FOXA1 (RT-qPCR) (hPSCs; Day 5, replicate 1, Fig. s7e): 512.006 | FOXA1 (RT-qPCR) (hPSCs; Day 5, replicate 2, Fig. s7e): 494.768 | FOXA1 (RT-qPCR) (hPSCs; Day 5, replicate 3, Fig. s7e): 555.597 | Difference between means (B - A) ± SEM (hPSCs; FOXA1 day 5): 207.3 ± 47.14 | Mean FOXA1 (RT-qPCR) (hPSCs; FOXA1 day 5, mean of n = 3, Fig. s7e): 520.8 | SOX2 difference between means (P8 - P1) ± SEM (hPSCs; Fig. s7b, mesoderm, day 4, P8 vs. P1): 0.07995 ± 0.0229 | SOX2 mRNA level (RT-qPCR), mean (hPSCs; Fig. s7b, mesoderm, day 4, mean of 3 replicates): 0.08192 | BMP2 mRNA level (RT-qPCR) (hPSCs; Day 0, replicate 1): 0.8054 | BMP4 mRNA level (RT-qPCR) (hPSCs; Day 0, replicate 1): 1.545 | CDH2 mRNA level (RT-qPCR) (hPSCs; Day 0, replicate 1): 1.016 | CXCR4 mRNA level (RT-qPCR) (hPSCs; Day 0, replicate 1): 0.9995 | SNAI1 mRNA level (RT-qPCR) (hPSCs; Day 0, replicate 1): 1.4406 | TBXT mRNA level (RT-qPCR) (hPSCs; Day 0, replicate 1): 1.3 | BMP2 mRNA level (RT-qPCR) (hPSCs; Day 0, replicate 2): 1.199 | BMP4 mRNA level (RT-qPCR) (hPSCs; Day 0, replicate 2): 0.6508 | CDH2 mRNA level (RT-qPCR) (hPSCs; Day 0, replicate 2): 0.7569 | CXCR4 mRNA level (RT-qPCR) (hPSCs; Day 0, replicate 2): 1.121 | SNAI1 mRNA level (RT-qPCR) (hPSCs; Day 0, replicate 2): 0.9418 | TBXT mRNA level (RT-qPCR) (hPSCs; Day 0, replicate 2): 0.8652 | BMP2 mRNA level (RT-qPCR) (hPSCs; Day 0, replicate 3): 0.9954 | BMP4 mRNA level (RT-qPCR) (hPSCs; Day 0, replicate 3): 0.8046 | CDH2 mRNA level (RT-qPCR) (hPSCs; Day 0, replicate 3): 1.227 | CXCR4 mRNA level (RT-qPCR) (hPSCs; Day 0, replicate 3): 0.8798 | SNAI1 mRNA level (RT-qPCR) (hPSCs; Day 0, replicate 3): 0.6176 | TBXT mRNA level (RT-qPCR) (hPSCs; Day 0, replicate 3): 0.8351 | BMP2 mRNA level (RT-qPCR) (hPSCs; Day 3, replicate 1): 1.1089 | BMP4 mRNA level (RT-qPCR) (hPSCs; Day 3, replicate 1): 41.4056 | CDH2 mRNA level (RT-qPCR) (hPSCs; Day 3, replicate 1): 19.486 | CXCR4 mRNA level (RT-qPCR) (hPSCs; Day 3, replicate 1): 784.151 | SNAI1 mRNA level (RT-qPCR) (hPSCs; Day 3, replicate 1): 12.8862 | TBXT mRNA level (RT-qPCR) (hPSCs; Day 3, replicate 1): 3854.3 | BMP2 mRNA level (RT-qPCR) (hPSCs; Day 3, replicate 2): 1.096 | BMP4 mRNA level (RT-qPCR) (hPSCs; Day 3, replicate 2): 50.4784 | CDH2 mRNA level (RT-qPCR) (hPSCs; Day 3, replicate 2): 21.455 | CXCR4 mRNA level (RT-qPCR) (hPSCs; Day 3, replicate 2): 774.595 | SNAI1 mRNA level (RT-qPCR) (hPSCs; Day 3, replicate 2): 13.1184
